Test results taken from patent US7727736B2, “Soluble phospholipids for use in clotting factor assays” (The University of North Carolina at Chapel Hill, priority 2003, dated 2010).

Legend:
FXa [1] = molecular target: T1, FXa (Homo sapiens, UniProt P00742); experiment: Influence of DAPA on FXa activity in prothrombin activation; assay type: biochemical; set-up: Human prothrombin and factor Xa; purchased Hematologic Technologies Inc. (factor Xa); factor Va from human plasma, in house; conditions: in the presence of C6PS, concentration of DAPA used herein
Method: Despite this, it has been shown that it provides rates of prothrombin activation in the presence of PS/PC membranes equivalent to those detected by activity measurements (Wu, et al. (2002) supra; Weinreb, et al. (2003) supra). To test whether DAPA influenced the activity of FXa in the presence of C6PS, the expected DAPA fluorescence was calculated based on the rate of appearance of thrombin and MzIIa, as detected by synthetic substrate assay as recorded in FIG. 6A. This calculation has been described (Wu, et al. (2002) supra) and its results, as applied to the data herein, are shown in the inset to FIG. 6A (filled circles) along with an experimental time-course of DAPA fluorescence change (open diamonds) reflecting prothrombin activation. Similar results were obtained at the other prothrombin concentrations examined.

FXa [2] = molecular target: T1, FXa; set-up: Human prothrombin and factor Xa; purchased Hematologic Technologies Inc. (factor Xa); factor Va from human plasma, in house; conditions: Nesheim et al. (1979); cited from earlier work

T1 sequence (P00742 41-179 limits assumed): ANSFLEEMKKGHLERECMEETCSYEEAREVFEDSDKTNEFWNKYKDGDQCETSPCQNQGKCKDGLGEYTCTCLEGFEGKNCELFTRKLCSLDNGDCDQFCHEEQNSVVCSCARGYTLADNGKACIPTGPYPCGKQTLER
T1 sequence (P00742 235-488 limits assumed): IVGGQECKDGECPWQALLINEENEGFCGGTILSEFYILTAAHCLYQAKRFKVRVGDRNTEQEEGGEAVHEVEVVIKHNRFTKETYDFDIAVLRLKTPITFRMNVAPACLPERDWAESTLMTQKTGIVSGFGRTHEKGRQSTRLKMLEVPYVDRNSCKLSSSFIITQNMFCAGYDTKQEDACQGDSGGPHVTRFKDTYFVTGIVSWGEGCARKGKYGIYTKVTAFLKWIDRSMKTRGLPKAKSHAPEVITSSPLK
T1 sequence (P12259 29-737 partner limits assumed): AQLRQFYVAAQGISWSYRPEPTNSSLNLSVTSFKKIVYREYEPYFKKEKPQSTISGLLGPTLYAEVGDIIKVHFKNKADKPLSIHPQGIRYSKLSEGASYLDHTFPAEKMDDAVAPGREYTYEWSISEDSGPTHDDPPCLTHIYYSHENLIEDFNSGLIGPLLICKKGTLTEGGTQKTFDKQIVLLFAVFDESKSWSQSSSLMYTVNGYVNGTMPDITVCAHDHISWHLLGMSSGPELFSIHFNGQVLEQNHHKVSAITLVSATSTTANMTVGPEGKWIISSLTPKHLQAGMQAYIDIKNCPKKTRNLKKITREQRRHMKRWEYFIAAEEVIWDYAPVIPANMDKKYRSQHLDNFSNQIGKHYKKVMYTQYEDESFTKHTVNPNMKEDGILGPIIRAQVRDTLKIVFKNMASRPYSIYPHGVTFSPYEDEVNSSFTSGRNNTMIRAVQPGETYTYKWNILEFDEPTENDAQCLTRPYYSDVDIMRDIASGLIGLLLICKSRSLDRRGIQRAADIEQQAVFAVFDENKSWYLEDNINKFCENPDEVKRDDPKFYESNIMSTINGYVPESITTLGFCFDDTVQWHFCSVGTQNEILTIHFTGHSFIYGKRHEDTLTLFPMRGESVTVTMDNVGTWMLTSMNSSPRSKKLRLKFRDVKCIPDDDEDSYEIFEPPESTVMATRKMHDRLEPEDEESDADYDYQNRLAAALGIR
T1 sequence (P12259 1574-2224 partner limits assumed): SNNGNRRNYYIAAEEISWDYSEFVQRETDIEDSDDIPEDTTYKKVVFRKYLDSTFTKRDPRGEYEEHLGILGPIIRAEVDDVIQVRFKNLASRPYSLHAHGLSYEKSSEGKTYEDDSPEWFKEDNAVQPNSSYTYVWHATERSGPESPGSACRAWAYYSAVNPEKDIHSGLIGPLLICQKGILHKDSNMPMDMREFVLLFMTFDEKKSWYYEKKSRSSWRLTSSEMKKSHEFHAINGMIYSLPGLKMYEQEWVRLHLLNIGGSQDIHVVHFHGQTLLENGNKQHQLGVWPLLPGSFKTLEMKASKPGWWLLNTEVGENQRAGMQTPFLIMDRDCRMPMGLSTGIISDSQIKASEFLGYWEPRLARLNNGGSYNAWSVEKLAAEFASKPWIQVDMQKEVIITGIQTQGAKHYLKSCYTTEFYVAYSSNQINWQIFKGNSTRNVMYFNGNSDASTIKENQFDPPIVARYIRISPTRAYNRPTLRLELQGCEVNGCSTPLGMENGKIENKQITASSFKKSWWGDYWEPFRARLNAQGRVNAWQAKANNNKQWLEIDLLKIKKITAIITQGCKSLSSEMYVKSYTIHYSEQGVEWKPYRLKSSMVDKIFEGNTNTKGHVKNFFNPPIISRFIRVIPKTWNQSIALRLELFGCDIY

CCC1CCN(C(=O)C(CCCN=C(N)N)NS(=O)(=O)c2cccc3c(N(C)C)cccc23)CC1 (centres unmarked) [DAPA, dansylarginine-N-(3-ethyl-1,5-pentanediyl) amide]
influence of DAPA on FXa activity (FXa [1]): does not influence FXa activity to a measurable extent | inhibition of FXa by DAPA (FXa [2]): weak competitive inhibitor
